Results on 39 molecules are retold here after patent publication US12391686B2, “Compounds and uses thereof” (Foghorn Therapeutics Inc., priority 2019, dated 2025).

A value given as a limit tells only on which side of the number the result lay.

For this assay, the target named is T1, Nanoluciferase-BRD9 fusion protein (3×FLAG-NLuc-BRD9) in SYO-1 cells (Homo sapiens, UniProt Q9H8M2).
T1 construct: expressed in transfected cells; host or cells: SYO-1
T1 sequence (Q9H8M2 1-597): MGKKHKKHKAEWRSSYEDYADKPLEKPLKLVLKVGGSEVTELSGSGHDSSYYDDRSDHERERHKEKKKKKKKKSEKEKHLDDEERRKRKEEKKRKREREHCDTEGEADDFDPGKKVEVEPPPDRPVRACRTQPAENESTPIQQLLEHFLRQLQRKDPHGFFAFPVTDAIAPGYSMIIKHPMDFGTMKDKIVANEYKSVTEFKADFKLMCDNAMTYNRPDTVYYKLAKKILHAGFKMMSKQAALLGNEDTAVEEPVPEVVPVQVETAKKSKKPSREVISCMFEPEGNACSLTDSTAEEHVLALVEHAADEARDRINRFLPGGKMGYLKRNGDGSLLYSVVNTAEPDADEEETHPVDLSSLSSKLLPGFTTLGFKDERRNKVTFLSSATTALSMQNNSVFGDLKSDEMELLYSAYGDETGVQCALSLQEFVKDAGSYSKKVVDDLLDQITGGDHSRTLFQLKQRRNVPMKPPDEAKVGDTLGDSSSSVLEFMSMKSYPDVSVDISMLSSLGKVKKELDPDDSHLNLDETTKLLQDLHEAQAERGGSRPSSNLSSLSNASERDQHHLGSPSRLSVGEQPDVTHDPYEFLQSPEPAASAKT
Put plainly: SYO1 BRD9 NanoLuc Degradation Assay. To be noted: Table 6B; SYO-1 cells expressing 3×FLAG-NLuc-BRD9, 6 hours incubation, 1 μM top dose; read-out: SYO1 BRD9-NanoLuc degradation IC50. The class given is cell-based. How it is done:
Procedure: A stable SYO-1 cell line expressing 3×FLAG-NLuc-BRD9 was generated. On day 0 cells were seeded in 30 μL media into each well of 384-well cell culture plates. The seeding density was 8000 cells/well. On day 1, cells were treated with 30 nL DMSO or 30 nL of 3-fold serially DMSO-diluted compounds (10 points in duplicates with 1 μM as final top dose). Subsequently plates were incubated for 6 hours in a standard tissue culture incubator and equilibrated at room temperature for 15 minutes. Nanoluciferase activity was measured by adding 15 μL of freshly prepared Nano-Glo Luciferase Assay Reagent (Promega N1130), shaking the plates for 10 minutes and reading the bioluminescence using an EnVision reader.
Results: The Inhibition % was calculated using the following formula: % Inhibition=100×(LumHC−Lumsample)/(LumHC−LumLC). DMSO treated cells are employed as High Control (HC) and 1 μM of a known BRD9 degrader standard treated cells are employed as Low Control (LC).

In the case of `COc1cc(-c2cn(C)c(=O)c3cnc(N(C)C)cc23)cc(OC)c1CN1CC2(C1)CN(C(C)(C)C#Cc1ccc3c(c1)C(=O)N(C1CCC(=O)NC1=O)C3=O)C2` (stereo not drawn) [Compound D72], the DC50 was < 10 nM. For `COc1cc(-c2cn(C)c(=O)c3cnc(N(C)C)cc23)cc(OC)c1CN1CC2(CCN(C(C)(C)C#Cc3ccc4c(c3)C(=O)N(C3CCC(=O)NC3=O)C4=O)CC2)C1` (stereo not drawn) [Compound D73], the DC50 is < 10 nM. The result for `COc1cc(-c2cn(C)c(=O)c3cnc(N(C)C)cc23)cc(OC)c1CN1CCC(CCNC(=O)NCc2ccc3c(c2)C(=O)N(C2CCC(=O)NC2=O)C3=O)CC1` (stereo not drawn) [Compound D74] reads 10 to 100 nM; that for `COc1cc(-c2cn(C)c(=O)c3cnc(N(C)C)cc23)cc(OC)c1CN1CCC(C(C)N2CCC3(CC2)CC(Oc2ccc4c(c2)C(=O)N(C2CCC(=O)NC2=O)C4=O)C3)CC1` (stereo not drawn) [Compound D75], < 10 nM; that for `COc1cc(-c2cn(C)c(=O)c3cnc(N(C)C)cc23)cc(OC)c1CN1CCN([C@@H](C)COc2ccc3c(c2)C(=O)N(C2CCC(=O)NC2=O)C3=O)CC1` (stereo partly drawn) [Compound D76], < 10 nM. The result for `COc1cc(-c2cn(C)c(=O)c3cnc(N(C)C)cc23)cc(OC)c1CN1CCN([C@H](C)COc2ccc3c(c2)C(=O)N(C2CCC(=O)NC2=O)C3=O)CC1` (stereo partly drawn) [Compound D77] reads < 10 nM; that for `COc1cc(-c2cn(C)c(=O)c3cnc(N(C)C)cc23)cc(OC)c1CN1CCN(C(C)(C)COc2ccc3c(c2)C(=O)N(C2CCC(=O)NC2=O)C3=O)CC1` (stereo not drawn) [Compound D78], < 10 nM. Consider `COc1cc(-c2cn(C)c(=O)c3cnc(N4CCC4)cc23)cc(OC)c1CN1CCC(C(=O)N2CCC3(CC2)CC(Oc2ccc4c(c2)C(=O)N(C2CCC(=O)NC2=O)C4=O)C3)CC1` (stereo not drawn) [Compound D79], for which the DC50 is < 10 nM. For `COc1cc(-c2cn(C)c(=O)c3cnc(N4CCC4)cc23)cc(OC)c1CN1CCC(CN2CCC3(CC2)CC(Oc2ccc4c(c2)C(=O)N(C2CCC(=O)NC2=O)C4=O)C3)CC1` (stereo not drawn) [Compound D80], the DC50 is < 10 nM.

Consider `COc1cc(-c2cn(C)c(=O)c3cnc(N(C)C)cc23)cc(OC)c1CN1CCN(C(C)(C)COc2cccc3c2C(=O)N(C2CCC(=O)NC2=O)C3=O)CC1` (stereo not drawn) [Compound D81], for which the DC50 is < 10 nM. In the case of `COc1cc(-c2cn(C)c(=O)c3cnc(N(C)C)cc23)cc(OC)c1CN1CCN(C[C@@H](C)Oc2ccc3c(c2)C(=O)N(C2CCC(=O)NC2=O)C3=O)CC1` (stereo partly drawn) [Compound D82], the DC50 was < 10 nM.

Turning to `COc1cc(-c2cn(C)c(=O)c3cnc(N(C)C)cc23)cc(OC)c1CN1CCN(C[C@H](C)Oc2ccc3c(c2)C(=O)N(C2CCC(=O)NC2=O)C3=O)CC1` (stereo partly drawn) [Compound D83], the DC50 was < 10 nM. The result for `COc1cc(-c2cn(C)c(=O)c3cnc(N(C)C)cc23)cc(OC)c1CN1CCC(C[N+]2(C)CCC3(CC2)CC(Oc2ccc4c(c2)C(=O)N(C2CCC(=O)NC2=O)C4=O)C3)CC1` (stereo not drawn) [Compound D84] reads 10 to 100 nM; that for `COc1cc(-c2cn(C)c(=O)c3cnc(N(C)C)cc23)cc(OC)c1CN1CCC(CCN2CCN(c3ccc4c(c3)C(=O)N(C3CCC(=O)N(COC(=O)OC(C)C)C3=O)C4=O)CC2)CC1` (stereo not drawn) [Compound D85], < 10 nM.

As for `COc1cc(-c2cn(C)c(=O)c3cnc(N(C)C)cc23)cc(OC)c1CN1Cc2cc3c(cc2C1)C(=O)N(C1CCC(=O)NC1=O)C3=O` (stereo not drawn) [Compound D86], the DC50 is < 10 nM.

As to `COc1cc(-c2cn(C)c(=O)c3cnc(N(C)C)cc23)cc(OC)c1CN1CCC(n2cc([C@H](C)Oc3ccc4c(c3)C(=O)N(C3CCC(=O)NC3=O)C4=O)nn2)CC1` (stereo partly drawn) [Compound D87], the DC50 was < 10 nM. In the case of `COc1cc(-c2cn(C)c(=O)c3cnc(N(C)C)cc23)cc(OC)c1CN1CCC(CCN2CCN(C3CCC(=O)NC3=O)C(=O)C2)CC1` (stereo not drawn) [Compound D88] it was 10 to 100 nM; in that of `COc1cc(-c2cn(C)c(=O)c3cnc(N(C)C)cc23)cc(OC)c1CN1CC(C#Cc2ccc3c(c2)C(=O)N(C2CCC(=O)NC2=O)C3=O)C1` (stereo not drawn) [Compound D89], < 10 nM. The result for `COc1cc(-c2cn(C)c(=O)c3cnc(N(C)C)cc23)cc(OC)c1CN1CCC2(CCN(c3ccc4c(c3)C(=O)N(C3CCC(=O)NC3=O)C4=O)C2)C1` (stereo not drawn) [Compound D90] reads < 10 nM.

With `COc1cc(-c2cn(C)c(=O)c3cnc(N(C)C)cc23)cc(OC)c1CN1CCC2(C1)CN(c1ccc3c(c1)C(=O)N(C1CCC(=O)NC1=O)C3=O)C2` (stereo not drawn) [Compound D91], the DC50 was < 10 nM. The result for `COc1cc(-c2cn(C)c(=O)c3cnc(N(C)C)cc23)cc(OC)c1CN1CCC2CN(c3ccc4c(c3)C(=O)N(C3CCC(=O)NC3=O)C4=O)C21` (stereo not drawn) [Compound D92] reads < 10 nM; that for `COc1cc(-c2cn(C)c(=O)c3cnc(N(C)C)cc23)cc(OC)c1CN1CCC2C(C1)CN2c1ccc2c(c1)C(=O)N(C1CCC(=O)NC1=O)C2=O` (stereo not drawn) [Compound D93], < 10 nM. The result for `COc1cc(-c2cn(C)c(=O)c3cnc(N(C)C)cc23)cc(OC)c1CN1CC(N2CCN(C3CCC(=O)NC3=O)C(=O)C2)C1` (stereo not drawn) [Compound D94] reads 10 to 100 nM. As to `COc1cc(-c2cn(C)c(=O)c3cnc(N(C)C)cc23)cc(OC)c1CN1CCN(C2(COc3ccc4c(c3)C(=O)N(C3CCC(=O)NC3=O)C4=O)COC2)CC1` (stereo not drawn) [Compound D95], the DC50 was < 10 nM.

In the case of `COc1cc(-c2cn(C)c(=O)c3cnc(N(C)C)cc23)cc(OC)c1CN1CCN(CC(C)(C)Oc2ccc3c(c2)C(=O)N(C2CCC(=O)NC2=O)C3=O)CC1` (stereo not drawn) [Compound D96], the DC50 is < 10 nM. The result for `COc1cc(-c2cn(C)c(=O)c3cnc(N(C)C)cc23)cc(OC)c1CN1CC(C(C)(C)N2CCC3(CC2)CN(c2ccc4c(c2)C(=O)N(C2CCC(=O)NC2=O)C4=O)C3)C1` (stereo not drawn) [Compound D97] reads < 10 nM; that for `COc1cc(-c2cn(C)c(=O)c3cnc(N(C)C)cc23)cc(OC)c1CN1CC(Oc2ccc3c(c2)C(=O)N(C2CCC(=O)NC2=O)C3=O)C1` (stereo not drawn) [Compound D98], < 10 nM; that for `COc1cc(-c2cn(C)c(=O)c3cnc(N(C)C)cc23)cc(OC)c1CN1CCC(C(N2CCC3(CC2)CC(Oc2ccc4c(c2)C(=O)N(C2CCC(=O)NC2=O)C4=O)C3)C(F)(F)F)CC1` (stereo not drawn) [Compound D99], < 10 nM. Turning to `COc1cc(-c2cn(C)c(=O)c3cnc(N(C)C)cc23)cc(OC)c1CN1CCN(C2(COc3cccc4c3C(=O)N(C3CCC(=O)NC3=O)C4=O)COC2)CC1` (stereo not drawn) [Compound D100], the DC50 was < 10 nM. The result for `COc1cc(-c2cn(C)c(=O)c3cnc(N(C)C)cc23)cc(Cl)c1CN1CCC(CN2CCC3(CC2)CC(Oc2ccc4c(c2)C(=O)N(C2CCC(=O)NC2=O)C4=O)C3)CC1` (stereo not drawn) [Compound D101] reads < 10 nM.

For the molecule `COc1cc(-c2cn(C)c(=O)c3cnc(N(C)C)cc23)cc(Cl)c1CN1CCC(C(=O)N2CCC3(CC2)CC(Oc2ccc4c(c2)C(=O)N(C2CCC(=O)NC2=O)C4=O)C3)CC1` (stereo not drawn) [Compound D102], the DC50 is < 10 nM. As for `COc1cc(-c2cn(C)c(=O)c3cnc(N(C)C)cc23)cc(OC)c1CN1CCC(CN2CCC3(CC2)CC(Oc2ccc4c(c2)CN(C2CCC(=O)NC2=O)C4=O)C3)CC1` (stereo not drawn) [Compound D103], the DC50 was < 10 nM. Regarding `COc1cc(-c2cn(C)c(=O)c3cnc(N(C)C)cc23)cc(OC)c1CN1CCC(c2ccc3c(c2)C(=O)N(C2CCC(=O)NC2=O)C3=O)CC1` (stereo not drawn) [Compound D104], the DC50 was < 10 nM. Regarding `COc1cc(-c2cn(C)c(=O)c3cnc(N(C)C)cc23)cc(OC)c1CN1CCN(CCC2CCN(c3ccc4c(c3)C(=O)N(C3CCC(=O)NC3=O)C4=O)CC2)CC1` (stereo not drawn) [Compound D105], the DC50 was < 10 nM. In the case of `CNc1cc2c(-c3cc(OC)c(CN4CCN(CCC5CCN(c6ccc7c(c6)C(=O)N(C6CCC(=O)NC6=O)C7=O)CC5)CC4)c(OC)c3)cn(C)c(=O)c2cn1` (stereo not drawn) [Compound D106], the DC50 is < 10 nM. In the case of `COc1cc(-c2cn(C)c(=O)c3cnc(N(C)C)cc23)cc(OC)c1CN1CCC(CN2CCC3(CC2)CC(Oc2ccc4c(c2)C(=O)N(C2CCC(=O)NC2=O)C4)C3)CC1` (stereo not drawn) [Compound D107] it was < 10 nM.

With `COc1cc(-c2cn(C)c(=O)c3cnc(N(C)C)cc23)cc(OC)c1CN1CCC(C(C)(C)N2CCC3(CC2)CC(Oc2ccc4c(c2)C(=O)N(C2CCC(=O)NC2=O)C4=O)C3)CC1` (stereo not drawn) [Compound D108], the DC50 was < 10 nM. The result for `COc1cc(-c2cn(C)c(=O)c3cnc(N(C)C)cc23)cc(OC)c1CN1CCN(C2(COc3ccc4c(c3)C(=O)N(C3CCC(=O)NC3=O)C4=O)CC2)CC1` (stereo not drawn) [Compound D109] reads < 10 nM; that for `COc1cc(-c2cn(C)c(=O)c3cnc(N(C)C)cc23)cc(OC)c1CN1CC(C(C)N2CCC3(CC2)CN(c2ccc4c(c2)C(=O)N(C2CCC(=O)NC2=O)C4=O)C3)C1` (stereo not drawn) [Compound D110], < 10 nM.
